Data taken from the NIST ThermoML archive (doi:10.1016/j.jct.2013.01.013).
Numbers after ± are expanded uncertainties.

What was measured:
[1] = 101 kPa, Liquid; for viscosity: Capillary tube (Ostwald / Ubbelohde) method; for speed of sound: Linear variable-path acoustic interferometer; for mass density: Pycnometric method
[2] = xn = mol fraction of the nth substance listed; conditions: 101 kPa, Liquid, x2 = 0; for viscosity: Capillary tube (Ostwald / Ubbelohde) method; for speed of sound: Linear variable-path acoustic interferometer; for mass density: Pycnometric method

C=C(C)C(=O)OC [methyl methacrylate]
[1]
Conditions | mass density [kg/m3] | speed of sound [m/s] | viscosity [mPa·s]
288.15 K | 949.1 ± 0.26 | 1216.8 ± 1.4 | 0.634 ± 0.0056
293.15 K | 943.37 ± 0.25 | 1200.5 ± 1.4 | 0.5903 ± 0.0053
298.15 K | 937.63 ± 0.25 | 1183.6 ± 1.4 | 0.5544 ± 0.005
303.15 K | 931.89 ± 0.26 | 1168.5 ± 1.4 | 0.5251 ± 0.0048
308.15 K | 926.15 ± 0.27 | 1152.6 ± 1.3 | 0.496 ± 0.0046
313.15 K | 920.41 ± 0.28 | 1135.4 ± 1.3 | 0.4723 ± 0.0044
318.15 K | 914.66 ± 0.29 | 1118.3 ± 1.3 | 0.4499 ± 0.0042

CC(=O)N(C)C [N,N-dimethylethanamide]
[1]
Conditions | mass density [kg/m3] | speed of sound [m/s] | viscosity [mPa·s]
288.15 K | 945.5 ± 0.27 | 1500.2 ± 1.6 | 1.15 ± 0.0095
293.15 K | 941 ± 0.26 | 1482.6 ± 1.6 | 1.038 ± 0.0086
298.15 K | 936.5 ± 0.27 | 1462.1 ± 1.6 | 0.9443 ± 0.0079
303.15 K | 932 ± 0.28 | 1441.8 ± 1.6 | 0.8792 ± 0.0075
308.15 K | 927.5 ± 0.29 | 1420.7 ± 1.6 | 0.8179 ± 0.007
313.15 K | 923 ± 0.3 | 1402.6 ± 1.6 | 0.7696 ± 0.0067
318.15 K | 918.5 ± 0.31 | 1383.5 ± 1.5 | 0.7346 ± 0.0064

CN(C)C=O [dimethylformamide] + C=C(C)C(=O)OC
[2]
Conditions | mass density [kg/m3] | speed of sound [m/s] | viscosity [mPa·s]
288.15 K | 953.61 ± 0.29 | 1503.3 ± 1.7 | 0.9452 ± 0.0081
293.15 K | 949.1 ± 0.28 | 1485.8 ± 1.7 | 0.8685 ± 0.0075
298.15 K | 944.6 ± 0.29 | 1469.5 ± 1.6 | 0.8123 ± 0.0071
303.15 K | 940.1 ± 0.3 | 1448.8 ± 1.6 | 0.7647 ± 0.0067
308.15 K | 935.6 ± 0.31 | 1429.1 ± 1.6 | 0.7189 ± 0.0064
313.15 K | 931.1 ± 0.32 | 1411.5 ± 1.6 | 0.6851 ± 0.0061
318.15 K | 926.6 ± 0.33 | 1392.6 ± 1.6 | 0.6642 ± 0.006

CN(C)C=O [dimethylformamide]
[1]
Conditions | mass density [kg/m3] | speed of sound [m/s] | viscosity [mPa·s]
288.15 K | 953.61 ± 0.29 | 1503.3 ± 1.7 | 0.9452 ± 0.0081
293.15 K | 949.1 ± 0.28 | 1485.8 ± 1.7 | 0.8685 ± 0.0075
298.15 K | 944.6 ± 0.29 | 1469.5 ± 1.6 | 0.8123 ± 0.0071
303.15 K | 940.1 ± 0.3 | 1448.8 ± 1.6 | 0.7647 ± 0.0067
308.15 K | 935.6 ± 0.31 | 1429.1 ± 1.6 | 0.7189 ± 0.0064
313.15 K | 931.1 ± 0.32 | 1411.5 ± 1.6 | 0.6851 ± 0.0061
318.15 K | 926.6 ± 0.33 | 1392.6 ± 1.6 | 0.6642 ± 0.006

CC(=O)N(C)C [N,N-dimethylethanamide] + C=C(C)C(=O)OC
[2]
Conditions | mass density [kg/m3] | speed of sound [m/s] | viscosity [mPa·s]
288.15 K | 945.5 ± 0.27 | 1500.2 ± 1.6 | 1.15 ± 0.0095
293.15 K | 941 ± 0.26 | 1482.6 ± 1.6 | 1.038 ± 0.0086
298.15 K | 936.5 ± 0.27 | 1462.1 ± 1.6 | 0.9443 ± 0.0079
303.15 K | 932 ± 0.28 | 1441.8 ± 1.6 | 0.8792 ± 0.0075
308.15 K | 927.5 ± 0.29 | 1420.7 ± 1.6 | 0.8179 ± 0.007
313.15 K | 923 ± 0.3 | 1402.6 ± 1.6 | 0.7696 ± 0.0067
318.15 K | 918.5 ± 0.31 | 1383.5 ± 1.5 | 0.7346 ± 0.0064
